In data set [1] the test system is platelet aggregation induced by 20 μM ADP. Kind of data set: Clinical Example 1: multiple-dose study, platelet aggregation induced by 20 μM ADP measured turbidometrically. The data set is classed as in vivo, human. Particulars: for IPA: 24 hours after 10th dose, mean ± SE, n = 6. Here is the method:
(§1) A Comparative Study of the Effects of Prasugrel and Clopidogrel on Platelet Function in Healthy Subjects • Background: Antiplatelet agents such as aspirin and clopidogrel are effective in the secondary prevention of atherothrombotic events. […] This study examined the tolerability, safety, and IPA profile of prasugrel compared with clopidogrel. • Method: A double-blind, placebo-controlled, multiple-dose study of healthy male volunteers randomized into 5 groups (n=6): prasugrel (5, 10 and 20 mg), clopidogrel (75 mg), and placebo. Study medications were taken once daily for 10 days.

Data set [2] deals with platelet aggregation to 20 μM ADP. Nature of the data set: Clinical Example 2: IPA to 20 μM ADP by turbidometric aggregometry and non-responder rates in aspirin-treated patients. It counts as in vivo, human. Conditions: for pre-dose IPA at day 28 / IPA at 4 h after LD: 20 μM ADP. Here is the method: This study analyzed IPA and non-responder rates with prasugrel (Pras), a novel P2Y12 antagonist, vs. clopidogrel (Clop) in aspirin-treated patients. • Methods: After 7-days on aspirin 325 mg, 101 subjects were randomized to 1 of 5 dosing regimens, a loading dose (LD) on day 1 and a daily maintenance dose (MD) on days 2-28: prasugrel—40 mg LD/5 mg MD, 40 mg LD/7.5 mg MD, 60 mg LD/10 mg MD, or 60 mg LD/15 mg MD or clopidogrel—300 mg LD/75 mg MD). IPA to 20 μM ADP was measured by turbidometric aggregometry.

Data set [3] deals with ADP (5 μM and 20 μM)-induced platelet aggregation. Nature of the data set: Clinical Example 3: responders by ADP-induced platelet aggregation (turbidometric aggregometry) after loading dose. It counts as in vivo, human. Conditions: for responders: healthy volunteers. The source says: Clopidogrel Responders and Nonresponders: A Comparison with Prasugrel a Novel Thienopyridine P2Y12 Receptor Antagonist • Background: Lower levels of inhibition of platelet aggregation (IPA) with clopidogrel have been associated with a higher risk of adverse events after percutaneous coronary intervention (PCI). Thresholds of IPA, objectively defined with Bayesian classification theory, were used to identify responders and non-responders to clopidogrel and prasugrel, a novel thienopyridine P2Y12 receptor antagonist. • Methods: An integrated database of ADP (5 μM and 20 μM)-induced platelet aggregation as measured by turbidometric aggregometry was analyzed from three single-center cross-over clinical pharmacology studies. Subjects (N=112, aged 18-65 years) were healthy volunteers with a baseline maximum platelet aggregation (MPA) of >70% to 20 μM ADP and were randomized to either a clopidogrel 300 mg loading dose (LD) or a prasugrel 60 mg LD. The change in MPA (ΔMPA) from baseline and IPA were evaluated at both 4-5 and 24 hours after the LD. A responder was defined as an individual achieving either a ΔMPA≧15% or an IPA≧20% in response to 20 μM ADP.

A short description of data set [4]: Clinical Example 1: tolerability, safety and bleeding time. The data set is classed as in vivo, human. Particulars: healthy subjects; multiple oral dosing, 5 to 20 mg for 10 days. The protocol: as §1
In the next data set the test system is platelet aggregation. Nature of the data set: Preclinical studies of prasugrel base versus clopidogrel. Particulars: preclinical studies involving the base of prasugrel.
[5] abbreviates: 5 μM ADP, clopidogrel 300 mg LD, N = 112.
Where [6] appears, read: 20 μM ADP, clopidogrel 300 mg LD, N = 112.
Where [7] appears, read: 5 μM ADP, prasugrel 60 mg LD, N = 91.
Where [8] appears, read: 20 μM ADP, prasugrel 60 mg LD, N = 91.

`COC(=O)[C@H](c1ccccc1Cl)N1CCc2sccc2C1` [clopidogrel, reference compound]: the “subjects demonstrating minimal IPA at Day 10” value in data set [1] (clopidogrel 75 mg once daily for 10 days) is given as 2 of 6. For the same compound, the IPA in data set [1] (clopidogrel 75 mg once daily for 10 days, 20 μM ADP) is 15.7%. Also, the IPA in data set [1] (clopidogrel 75 mg once daily for 10 days, 20 μM ADP, listed as Clopidogrel) came out at 15.7 ± 6.8%. The “pre-dose IPA at day 28” value in data set [2] (clopidogrel 75 mg MD, aspirin-treated patients) is reported as 31.2%. Besides, the “non-responder rate (not achieving ≧20% IPA)” value in data set [2] (clopidogrel 75 mg MD, pre-dose during MD) came out at 46%. Also, the “non-responder rate (not achieving ≧20% IPA)” value in data set [2] (clopidogrel 300 mg LD, 4 h after LD) stood at 52%. Besides, the “IPA at 4 h after LD” value in data set [2] (clopidogrel 300 mg LD, aspirin-treated patients) is on record as 30.0%. For the same compound, in data set [3] (setting [5]), the “Number of Responders, IPA ≧ 25%” value is recorded as 87; the “Number of Responders, ΔMPA ≧ 20%” value turned out to be 82; the “Percentage of Responders, IPA ≧ 25%” value was found to be 78%; the “Percentage of Responders, ΔMPA ≧ 20%” value was 73%. For the same compound, in data set [3] (5 μM ADP, clopidogrel 300 mg LD), the responders entry is “approximately 75%”. In data set [3] (setting [6]), the “Number of Responders, IPA ≧ 20%” value amounted to 64; the “Number of Responders, ΔMPA ≧ 15%” value stood at 68; the “Percentage of Responders, IPA ≧ 20%” value was determined as 57%; the “Percentage of Responders, ΔMPA ≧ 15%” value was found to be 61%. This compound also yielded a responders in data set [3] (20 μM ADP, clopidogrel 300 mg LD) of 60%.

`CC(=O)Oc1cc2c(s1)CCN(C(C(=O)C1CC1)c1ccccc1F)C2` (stereo not drawn) [prasugrel, 2-Acetoxy-5-(α-cyclopropylcarbonyl-2-fluorobenzyl)-4,5,6,7-tetrahydrothieno[3,2-c]pyridine] showed an IPA in data set [1] (prasugrel 5 mg once daily for 10 days, 20 μM ADP) of 39.2 ± 4.4%. Further, the IPA in data set [1] (prasugrel 10 mg once daily for 10 days, 20 μM ADP) stood at 58.2 ± 4.9%. In data set [1] (prasugrel 20 mg once daily for 10 days, 20 μM ADP), the IPA is listed as 68.3 ± 5.4%. Also, the “IPA, range over doses” value in data set [1] (prasugrel 5, 10 and 20 mg once daily for 10 days, 24 hours after the final dose, 20 μM ADP) was 39.2%-68.3. Also, the tolerability entry in data set [4] is recorded as “well tolerated”. Besides, in data set [2] (prasugrel 10 mg MD, aspirin-treated patients), the “pre-dose IPA at day 28” value was 57.5%. In addition, in data set [2] (prasugrel 15 mg MD, aspirin-treated patients), the “pre-dose IPA at day 28” value amounted to 65.8%. In addition, in data set [2] (prasugrel 40 mg LD, aspirin-treated patients), the “IPA at 4 h after LD” value is given as 60.6%. Moreover, the “IPA at 4 h after LD” value in data set [2] (prasugrel 60 mg LD, aspirin-treated patients) is on record as 68.4%. In addition, the “rate of non-responders compared to standard clopidogrel LD and MD” value in data set [2] (prasugrel LD of 40 or 60 mg and MD of 10 or 15 mg, aspirin-treated patients) is given as “lower rate of non-responders”. Moreover, in data set [3] (setting [7]), the “Number of Responders, IPA ≧ 25%” value was 91; the “Number of Responders, ΔMPA ≧ 20%” value was found to be 91; the “Percentage of Responders, IPA ≧ 25%” value turned out to be 100%; the “Percentage of Responders, ΔMPA ≧ 20%” value came to 100%. The compound further showed a responders in data set [3] (5 μM ADP, prasugrel 60 mg LD) of 100%. Besides, in data set [3] (setting [8]), the “Number of Responders, IPA ≧ 20%” value was 91; the “Number of Responders, ΔMPA ≧ 15%” value is reported as 91; the “Percentage of Responders, IPA ≧ 20%” value is listed as 100%; the “Percentage of Responders, ΔMPA ≧ 15%” value is 100%. Moreover, the responders in data set [3] (20 μM ADP, prasugrel 60 mg LD) is 100%. Also, the “potency relative to clopidogrel” value with platelet aggregation is listed as “at least 10 times”.

The values above are taken from patent US20090156632A1, “DOSAGE REGIMEN FOR PRASUGREL” (priority 2005, published 2009).
